{"source": "patent US20250177473A1", "about": "“PEPTIDE REGULATORS OF METABOLISM” (Metabico, Inc., priority 2022, published 2025)", "key": {"HepG2 cells": {"system": "HepG2 cells", "assay": "HepG2 cell death on incubation with antagonist", "format": "cell-based, human", "conditions": "co-incubation with EPSI 0.05 mg/mL in M67 reporter experiment", "experimental": "• HepG2 human hepatocyte carcinoma cell line (HB-8065, ATCC, USA). • HepG2 cells were cultured in a complete DMEM medium containing 15% FBS.\nTransfected HepG2 cells were co-incubated with EPSI peptide (0.05 mg/mL) and antagonists of the selected receptors."}, "[1]": {"system": "M67 (Stat1/Stat3) luciferase reporter", "assay": "M67 (Stat1/Stat3) luciferase reporter in HepG2 cells", "format": "cell-based, human", "conditions": "16 hours; for Stat3 (M67) reporter activity with three PPAR antagonists: GW 6471 + T0070907 + GSK3787 applied together with EPSI 0.05 mg/mL; for effect of co-applied inhibitor/antagonist on EPSI-induced M67 reporter activation: EPSI 0.05 mg/mL + inhibitor (pravastatin 10 μM; SC144; NF 449)", "procedure": "Luciferase reporters used in the study: • M67 luciferase reporter.\nThe use of Stat1 inhibitor is required to distinguish the effects of Stat1 and Stat3.\nHepG2 cells were electroporated with 10 μg of purified plasmid DNA and 0.1 μg of pRL-CMV Renilla luciferase control reporter vector (Promega, Madison, WI, USA) using the Neon Transfection System (Thermo Fisher Scientific, Waltham, MA, USA) and the following regimens: three 20 ms 1230 V pulses.\nLuciferase activity was measured in Luminometer 20/20n (TurnerBioSystems, Sunnwale, USA) using Dual-Luciferase Reporter Assay System (Promega, Madison, USA) following the manufacturer's protocol.\nDY 268 (Tocris Cat. No. 5656) • PPAR-alpha: GW 6471 (Tocris, Cat. No. 4618) • PPAR-gamma: T0070907 (Selleck Chemicals, Catalog No. S2871) • PPAR-delta: GSK3787 (Selleck Chemicals, Catalog No. S8025) • LEPR.\nHepG2 cells were electroporated with 10 μg of purified plasmid DNA of M67 reporter and 0.1 μg of pRL-CMV Renilla luciferase control reporter vector (Promega, Madison, WI, USA) using the Neon Transfection System (Thermo Fisher Scientific, Waltham, MA, USA) and the following regimens: three 20 ms 1230 V pulses.\nDetection of luciferase signals was performed 16 hours after the compounds' application. Luciferase activity was measured in Luminometer 20/20n (TurnerBioSystems, Sunnwale, USA) using Dual-Luciferase Reporter Assay System (Promega, Madison, USA) following the manufacturer's protocol."}, "[2]": {"system": "primary mouse fibroblasts", "assay": "Cell confluence of fibroblasts (cytotoxic effect)", "format": "cell-based", "conditions": "2.5 mg/ml (highest dose), 24 hours", "experimental": "The study was carried out in primary mouse fibroblasts. Isolation of fibroblasts was carried out with techniques described earlier (See Example 1). Fibroblasts were incubated with […] (SEQ ID NO: 1) peptide at different concentrations (0.005 mg/ml; 0.05 mg/ml; 0.5 mg/ml; 2.5 mg/ml) for 24 hours. Each treatment group was represented in two biological replicates."}, "IL-6": {"system": "IL-6", "assay": "IL-6 mRNA expression in LPS-induced primary mouse fibroblasts", "format": "cell-based", "conditions": "peptide 100 μM + LPS 0.5 μg/mL, 24 hours", "experimental": "(§1) The study was carried out in primary mouse fibroblasts. Isolation of fibroblasts was carried out with techniques described earlier (See Example 1). Fibroblasts were cultured for 3 days. The following stressors were applied separately: bacterial lipopolysaccharides (LPS), high glucose in the incubation medium, and serum-free incubation medium.\n(§2) LPS is a major outer surface membrane component that induces an inflammatory response in cells.\n(§3) Isolation of mRNA, synthesis of the first strand of cDNA, and RT-PCR were performed with techniques described earlier (See Example 1). Expression levels of IRS2, TNF-α, IL-6, and GSK3p (WNT-pathway) were analyzed.\n(§4) The study was carried out in primary mouse fibroblasts. Isolation of fibroblasts was carried out with techniques described earlier (See Example 1). Incubation of fibroblasts with 100 μM individual peptides and 0.5 μg/mL LPS was carried out for 24 hours. Each treatment group was represented in two biological replicates.\n(§5) Isolation of mRNA, synthesis of the first strand of cDNA, and RT-PCR were performed with techniques described earlier (See Example 1). Expression levels of RPL27, TNF-α, IL-6, and IRS2 genes were analyzed."}, "IRS2 gene expression": {"system": "IRS2 gene expression", "assay": "IRS2 and metabolic gene mRNA expression (real-time PCR) in primary mouse fibroblasts", "format": "cell-based", "conditions": "24 hours", "experimental": "The study was carried out in primary mouse fibroblasts. Fibroblasts were isolated from skin tissues of twenty C57BL/6 mice in accordance with the standard protocol (Seluanov (2010). Establishing primary adult fibroblast cultures from rodents. JoVE. 44). Fibroblasts were cultured in a complete DMEM/F12 medium containing 15% FBS for two days, after which they were incubated with individual peptides for 24 hours. The dose of each peptide was 0.5 mg/ml. The experiment was carried out in 2 biological replicates.\nThe isolation of total RNA from cells was performed using the “ExtractRNA” reagent (Evrogen, Russia) analog of Trizol, according to the manufacturer's protocol. The quality of the isolated total RNA was assessed by measuring the concentration of RNA and the ratio of optical absorption at wavelengths of 260 nm and 280 nm. […]\nReal-time PCR was performed using commercially available kit qPCR mix-HS-SYBR+Low Rox (Evrogen, Russia) and 7500 real-time PCR System (Applied Biosystems). […] We analyzed expression levels of TSC1, TSC2, pS6K1, pAKT, IRS2, SREBP-1, Stat3 genes. […]\nIsolation of mRNA, synthesis of the first strand of cDNA, and RT-PCR were performed with techniques described earlier (See Example 1). Expression levels of IRS2, TNF-α, IL-6, and GSK3p (WNT-pathway) were analyzed. […]"}, "TNF-α": {"system": "TNF-α", "assay": "TNF-α mRNA expression in LPS-induced primary mouse fibroblasts", "format": "cell-based", "conditions": "peptide 100 μM + LPS 0.5 μg/mL, 24 hours", "experimental": "as §1, §2, §3, §4, §5"}}, "note": "No end group written: not given here.", "data": [{"molecule": "COc1cc(OC)cc(N(CCNC(C)C)c2ccc3ncc(-c4cnn(C)c4)nc3c2)c1", "note": "[Erdafitinib]", "values": [{"measurement": "HepG2 cell death", "setting": "HepG2 cells", "result": "total cell death"}]}, {"molecule": "O=C(NCCS(=O)(=O)c1ccc(C(F)(F)F)cn1)c1ccc(Cl)cc1", "note": "[GSK3787]", "values": [{"measurement": "Stat3 (M67) reporter activity with three PPAR antagonists", "setting": "[1]", "result": "significant induction"}]}, {"molecule": "CCC(=O)NC[C@H](Cc1ccc(OCCc2nc(-c3ccccc3)oc2C)cc1)N/C(C)=C\\C(=O)c1ccc(C(F)(F)F)cc1", "note": "[GW 6471]", "values": [{"measurement": "Stat3 (M67) reporter activity with three PPAR antagonists", "setting": "[1]", "result": "significant induction"}]}, {"molecule": "O=C(Nc1cc(C(=O)Nc2ccc(S(=O)(=O)O)cc2S(=O)(=O)O)cc(C(=O)Nc2ccc(S(=O)(=O)O)cc2S(=O)(=O)O)c1)Nc1cc(C(=O)Nc2ccc(S(=O)(=O)O)cc2S(=O)(=O)O)cc(C(=O)Nc2ccc(S(=O)(=O)O)cc2S(=O)(=O)O)c1", "note": "[NF 449]", "values": [{"measurement": "effect of co-applied inhibitor/antagonist on EPSI-induced M67 reporter activation", "setting": "[1]", "result": "partially inversed"}]}, {"molecule": "O=C(NNc1nc2cc(F)ccc2n2cccc12)c1cnccn1", "note": "[SC144]", "values": [{"measurement": "effect of co-applied inhibitor/antagonist on EPSI-induced M67 reporter activation", "setting": "[1]", "result": "partially inversed"}]}, {"molecule": "O=C(Nc1ccncc1)c1cc([N+](=O)[O-])ccc1Cl", "note": "[T0070907]", "values": [{"measurement": "Stat3 (M67) reporter activity with three PPAR antagonists", "setting": "[1]", "result": "significant induction"}]}, {"molecule": "DLSKEPSISRE", "values": [{"measurement": "cytotoxic effect (confluence of the cells)", "setting": "[2]", "result": "absence of cytotoxic effect"}]}, {"molecule": "SKEPSIS (Synthetic polymer)", "values": [{"measurement": "LPS-evoked levels of IL-6 expression", "setting": "IL-6", "result": "reducing LPS-evoked levels"}, {"measurement": "IRS2 expression during LPS-induced inflammatory response", "setting": "IRS2 gene expression; peptide 100 μM + LPS 0.5 μg/mL", "result": "induced"}, {"measurement": "IRS2 gene expression levels", "setting": "IRS2 gene expression; pharmacophore screen, peptides 100 μM", "result": "induce IRS2 gene expression levels"}, {"measurement": "LPS-evoked levels of TNF-α expression", "setting": "TNF-α", "result": "reducing LPS-evoked levels"}]}]}
